Patent publication US12371666B2, “Nucleoside modified mRNA and uses thereof” (BOSTON MEDICAL CENTER CORPORATION, priority 2021, dated 2025)
Read-outs that look alike come from different tables or passages of the source.

Key:
[1] = test system: APAP-induced liver injury; test: Acetaminophen-induced liver injury in male and female C57BL/6J mice
Experimental: Images from stained sections were visualized and measured at 40× magnification on ImageJ™ (FIJI) using the area measurement tool. 2-3 lobes were measured and averaged per mouse.

[2] = test system: centrilobular necrosis; test: APAP-NSG liver injury model dose test; settings: NSG mice, 24 h after injection
[3] = test system: APAP-induced liver injury; type: in vivo; settings: for survival: GH 2.5 mg/kg or NAC 1000 mg/kg 8 hours post-APAP
Experimental: Acetaminophen-induced liver injury mouse model.
GH and NAC were both diluted in sterile PBS. GH was diluted to a concentration of 1 mg/mL and given at dosage indicated, subcutaneously with a 0.5 mL insulin syringe. NAC was diluted to a concentration of 50 mg/mL and given at 1000 mg/kg dosage, intraperitoneally with a 1 mL insulin syringe.
The statistical analyses for the graphs were carried out using two-sided student's t test for unpaired comparisons with GraphPad Prism™. The statistical analyses for the Kaplan-Meier survival curves were carried out using the Log-rank Mantel-Cox test with GraphPad Prism. A p value<0.05 was considered significant, ***<0.0001, **<0.001, *<0.05, n.s. or no result=not significant.

[4] = intravenous NAC; cited from earlier work
[5] = test system: Tg(fabp10a:CFP-NTR) larvae; test: Zebrafish NTR/Mtz hepatocyte ablation model of BEC-driven liver regeneration; settings: for size of regenerating livers: 2 μM, treatment from A0h to R24h
Excerpt: a. […] In the Tg(fabp10a:CFP-NTR)^5931 zebrafish line, bacterial nitroreductase (NTR) is expressed under the hepatocyte-specific fabp10a promoter^2. Since the NTR enzyme converts the non-toxic prodrug, metronidazole (Mtz), into a cytotoxic drug^59, 60 treating the transgenic zebrafish with Mtz specifically ablates hepatocytes. In this model, upon severe hepatocyte loss, BECs first dedifferentiate into LPCs, then re-differentiate into either hepatocytes or BECs, thereby leading to full liver recovery^2.
b. […] Upon targeted chemical screening using the NTR/Mtz model^61, the inventors examined the effect of VEGFR2 inhibition on BEC-driven liver regeneration. The inventors used the Notch reporter line Tg(Tp1:H2B-mCherry)^939 that expresses H2B-mCherry fusion proteins in BECs.
c. […] Given that VEGFR2 functions via at least two major signaling branches, PI3K/AKT and MEK/ERK1/2, the inventors tested which downstream branch controls BEC-driven liver regeneration using their specific inhibitors (LY294002 for PI3K and U0126 for MEK1/2). […] Given the well-known cascade of PI3K-AKT-mTOR, the inventors further examined mTOR activity in the regenerating livers.

[6] = test system: BEC-driven liver regeneration; settings: earlier chemical screen of the inventors; cited from earlier work
[7] = test system: BEC-driven liver regeneration; test: BEC-driven liver regeneration in zebrafish hepatocyte ablation model Tg(fabp10a:CFP-NTR) with Mtz; type: in vivo
Experimental: Experiments on zebrafish: All zebrafish experiments were performed under the approval of the IACUC at the University of Pittsburgh. Embryos and adult fish were raised and maintained under standard laboratory conditions. The following transgenic lines were used: Tg(fabp10a:CFP-NTR)s931, Tg(Tp1:H2B-mCherry)s939, Tg(hs:sflt1)bns80, Tg(Tp1:CreERT2)s959, and Tg(hs:loxP-mCherry-loxP-hVEGFA)mn32.
Hepatocyte ablation using the Tg(fabp10a:CFP-NTR) line: Hepatocyte ablation was performed by treating Tg(fabp10a:CFP-NTR) larvae with 10 mM Mtz in egg water supplemented with 0.2% DMSO and 0.2 mM 1-phenyl-2-thiourea from 3.5 to 5 dpf for 36 hours, as previously described^9.
SU5416 treatment: SU5416 (MedChemExpress, Monmouth Junction, NJ) was used at 1.5 μM.
Heat-shock conditions for zebrafish larvae: Both Tg(hs:sflt1) and Tg(hs:loxP-mCherry-loxP-hVEGFA) larvae were heat-shocked by transferring them into egg water pre-warmed to 38.5° C. and keeping them at this temperature for 20 minutes, as previously described^10.
Whole-mount in situ hybridization and immunostaining in zebrafish: Whole-mount in situ hybridization was performed, as previously described^11, with gc^12 and f5 probes. […]
Quantification of Bhmt+ cell number and Bhmt+ area in the zebrafish liver: For the quantification of Bhmt+ cell number, confocal projection images consisting of 6 optical-section images, with 3-μm interval, were used. Bhmt+ and Tp1:H2B-mCherry+ cells were manually counted; the number of Bhmt/Tp:H2B-mCherry double-positive cells was divided by the number of Tp1:H2B-mCherry+ cells. For the quantification of Bhmt+ liver area, confocal projection images showing Bhmt and fabp10a:CFP-NTR expression were used. Both Bhmt^+ and fabp10a:CFP-NTR+ areas in the liver were calculated by ImageJ and the former area was divided by the latter.
Image acquisition, processing, and statistical analysis of zebrafish data: Zeiss LSM700 confocal and Leica MZ16 microscopes were used to obtain image data. Confocal stacks were analyzed using the Zen 2009 software. […] Quantitative data were shown as mean±standard error of the mean (SEM).

[8] = b-estradiol treatment of males in APAP liver injury, serum ALT; type: in vivo, mouse; settings: IP 0.5 mg/kg in corn oil, 24 hours following APAP injection
[9] = test system: liver sex-biased genes; settings: rat GH 25 ng/g BW/hr by minipump, male mice; cited from earlier work

CC(=O)Nc1ccc(O)cc1 [APAP, acetyl-para-aminophenol]
necrosis (H&E), males vs females ([1]; 400 mg/kg): more extensive in male livers and progressively increased overtime, whereas female livers fully recovered by 48 hours | serum bilirubin, males vs females ([1]; 400 mg/kg): persisted for 96 hours in males but decreased after 48 hours in females | injury and lethality ([1]; 400 mg/kg intraperitoneally, both sexes): induces injury in both sexes without lethality up to 96 hours | serum ALT levels, males vs females ([1]; 400 mg/kg, time points post-24 hours): consistently higher in males than in females | liver damage ([2]; 200 mg/Kg): mild | liver damage ([2]; 400 mg/kg): severe damage and ultimately death

CC(=O)N[C@@H](CS)C(=O)O [NAC, N-acetyl cysteine]
survival ([3]; females): all females survived regardless of the treatment | necrotic tissue ([3]; females, NAC 1000 mg/kg): did not show the beneficial effect of reducing necrotic tissue | necrotic areas ([3]; males that survived 24 hours post-APAP, NAC 1000 mg/kg): significantly diminished | apoptotic TUNEL+ area ([3]; males, 24 hours post-APAP): significantly diminished | survival ([3]; males, 48 hours post-APAP): all NAC-treated males died by 48 hours post-APAP | patients with anaphylactoid reaction [4]: up to 18%

CN(C)c1ccc(/C=C2\C(=O)Nc3ccccc32)cc1 [SU4312]
size of regenerating livers [5]: significantly reduced the size of regenerating livers | induction of early hepatocyte markers Prox1 and HNF4α in BEC-derived LPCs [6]: did not affect | size of regenerating livers [6]: significantly reduced the size of regenerating livers

Cc1cc(C)c(/C=C2\C(=O)Nc3ccccc32)[nH]1 [SU5416]
size of regenerating livers [5]: significantly reduced the size of regenerating livers | expression of Prox1 and Hnf4a in LPCs ([5]; R6h): normal expression of Prox1 and Hnf4a | pS6 expression in LPCs (mTORC1 activation) ([5]; R6h regenerating livers): absent | expression of fabp10a:CFP-NTR ([5]; R24h): very weak expression | expression of the hepatocyte marker Bhmt ([5]; R24h): almost no expression | LPC-to-hepatocyte differentiation defect by gc and f5 expression ([7]; R24h): This defect was confirmed | expression of the hepatocyte marker Bhmt ([7]; R24h, SU5416 from A18h to R24h): greatly suppressed the expression of the hepatocyte marker Bhmt | size of regenerating livers ([7]; SU5416 1.5 μM from A18h to R24h): significantly reduced the size of regenerating livers | induction of early hepatocyte markers Prox1 and HNF4α in BEC-derived LPCs [6]: did not affect | size of regenerating livers [6]: significantly reduced the size of regenerating livers

C[C@]12CC[C@@H]3c4ccc(O)cc4CC[C@H]3[C@@H]1CC[C@@H]2O [b-estradiol]
ALT levels [8]: significantly decreased ALT levels

B1: cGH: rat recombinant GH given by continuous infusion via osmotic minipump (protein, UniProt P01244 27-216, looked up)
Somatotropin: FPAMPLSSLFANAVLRAQHLHQLAADTYKEFERAYIPEGQRYSIQNAQAAFCFSETIPAPTGKEEAQQRTDMELLRFSLLLIQSWLGPVQFLSRIFTNSLMFGTSDRVYEKLKDLEEGIQALMQELEDGSPRIGQILKQTYDKFDANMRSDDALLKNYGLLSCFKKDLHKAETYLRVMKCRRFAESSCAF
liver sex-biased genes whose expression is feminized [9]: 92%
